Measured values published in US20170275287A1, “NOVEL N2, N4, N7, 6-TETRASUBSTITUTED PTERIDINE-2,4,7-TRIAMINE AND 2, 4, 6, 7-TETRASUBSTITUTED PTERIDINE COMPOUNDS AND METHODS OF SYNTHESIS AND USE THEREOF” (Janus Biotherapeutics, Inc., priority 2014, published 2017).
Where two headings read alike, the source gives them in different places.

Tests used:
[1] = Toxicokinetics of the 7-day tox study; type: in vivo, rats; conditions: for increase in AUC0-24 h for a 10-fold increase in dose / increase in Cmax for a 10-fold increase in dose: 10 to 100 mg/kg; for AUC / half-life / Cmax / Tmax / clearance / Vd / bioavailability: rat; for half-life: read-out: T½ (converted); for Vd: read-out: Vdss; for bioavailability: read-out: calculated oral absolute bioavailability
Description: A 7-day non-GLP tox study was performed in rats. […] The following parameters and end points were evaluated in this study: clinical signs, body weights, body weight changes, food consumption, clinical pathology parameters (hematology, coagulation, clinical chemistry, and urinalysis), toxicokinetic parameters, gross necropsy findings, organ weights, and histopathologic examinations.
Clinical signs and body weight changes in the TK animals were generally similar to the main toxicology phase animals. Select toxicokinetic parameters from Days 1 and 7 are included below in Table 11.

CYP2C8 = molecular target: T1, CYP2C8 (Homo sapiens, UniProt P10632); test: Cytochrome p450 inhibition (CEREP); type: in vitro ADME; conditions: 10 μM
T1 construct: CEREP (contract laboratory)
T1 sequence (P10632 whole entry): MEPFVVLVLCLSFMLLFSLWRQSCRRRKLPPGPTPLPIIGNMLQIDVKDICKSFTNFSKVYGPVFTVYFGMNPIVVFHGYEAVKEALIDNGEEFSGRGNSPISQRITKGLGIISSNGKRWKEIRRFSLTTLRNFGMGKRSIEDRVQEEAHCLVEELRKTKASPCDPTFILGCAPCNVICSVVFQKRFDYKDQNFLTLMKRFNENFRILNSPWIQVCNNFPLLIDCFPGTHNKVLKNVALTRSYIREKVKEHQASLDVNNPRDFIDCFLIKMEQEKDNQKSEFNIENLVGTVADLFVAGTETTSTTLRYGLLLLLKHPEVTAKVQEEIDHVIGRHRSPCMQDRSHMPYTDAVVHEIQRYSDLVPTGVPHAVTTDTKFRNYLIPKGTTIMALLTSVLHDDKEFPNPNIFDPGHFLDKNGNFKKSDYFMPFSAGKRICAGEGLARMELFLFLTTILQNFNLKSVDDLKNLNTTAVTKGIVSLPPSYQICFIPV
Description: (§1) JB6121 was also tested for CYP inhibition, see Table 6 below. Assays where performed by CEREP, Seattle, Wash., according to Atkinson, A et al., 2005, Drug Metab. Dispos. 33:1637-1647.

CYP3A4 = molecular target: T2, CYP3A4 (Homo sapiens, UniProt P08684); test: Cytochrome p450 inhibition (CEREP); type: in vitro ADME; conditions: 10 μM
T2 construct: CEREP (contract laboratory)
T2 sequence (P08684 whole entry): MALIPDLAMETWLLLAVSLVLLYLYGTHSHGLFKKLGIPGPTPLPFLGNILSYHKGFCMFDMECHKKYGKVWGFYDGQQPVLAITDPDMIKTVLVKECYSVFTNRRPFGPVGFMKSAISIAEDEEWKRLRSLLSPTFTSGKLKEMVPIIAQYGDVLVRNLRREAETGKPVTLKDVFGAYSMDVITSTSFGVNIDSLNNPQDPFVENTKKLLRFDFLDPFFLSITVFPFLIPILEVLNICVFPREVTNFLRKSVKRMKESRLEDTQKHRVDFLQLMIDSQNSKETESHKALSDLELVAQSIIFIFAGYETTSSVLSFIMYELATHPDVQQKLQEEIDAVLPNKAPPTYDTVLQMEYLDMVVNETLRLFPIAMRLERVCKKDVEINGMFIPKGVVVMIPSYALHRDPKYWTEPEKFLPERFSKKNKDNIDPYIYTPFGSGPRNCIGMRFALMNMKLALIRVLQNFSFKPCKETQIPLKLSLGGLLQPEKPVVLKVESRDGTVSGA
Description: as §1

CYP2C19 = molecular target: T3, CYP2C19 (Homo sapiens, UniProt P33261); test: Cytochrome p450 inhibition (CEREP); type: in vitro ADME; conditions: 10 μM
T3 construct: CEREP (contract laboratory)
T3 sequence (P33261 whole entry): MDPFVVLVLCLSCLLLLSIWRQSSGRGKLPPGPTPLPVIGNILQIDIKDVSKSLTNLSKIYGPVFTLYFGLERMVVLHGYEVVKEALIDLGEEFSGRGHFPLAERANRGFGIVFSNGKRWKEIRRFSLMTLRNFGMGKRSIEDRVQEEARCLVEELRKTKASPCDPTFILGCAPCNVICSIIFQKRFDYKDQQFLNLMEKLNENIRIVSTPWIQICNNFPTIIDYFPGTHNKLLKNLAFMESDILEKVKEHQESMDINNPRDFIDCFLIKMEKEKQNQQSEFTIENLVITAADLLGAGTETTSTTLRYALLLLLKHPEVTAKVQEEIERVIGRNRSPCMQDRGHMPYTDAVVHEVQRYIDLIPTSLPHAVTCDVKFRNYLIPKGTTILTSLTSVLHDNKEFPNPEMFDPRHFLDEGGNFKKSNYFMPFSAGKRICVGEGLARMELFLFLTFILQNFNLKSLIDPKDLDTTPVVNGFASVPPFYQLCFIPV
Description: as §1

CYP2C9 = molecular target: T4, CYP2C9 (Homo sapiens, UniProt P11712); test: Cytochrome p450 inhibition (CEREP); type: in vitro ADME; conditions: 10 μM
T4 construct: CEREP (contract laboratory)
Description: as §1

CYP2D6 = molecular target: T5, CYP2D6 (Homo sapiens, UniProt P10635); test: Cytochrome p450 inhibition (CEREP); type: in vitro ADME; conditions: 10 μM
T5 construct: CEREP (contract laboratory)
T5 sequence (P10635 whole entry): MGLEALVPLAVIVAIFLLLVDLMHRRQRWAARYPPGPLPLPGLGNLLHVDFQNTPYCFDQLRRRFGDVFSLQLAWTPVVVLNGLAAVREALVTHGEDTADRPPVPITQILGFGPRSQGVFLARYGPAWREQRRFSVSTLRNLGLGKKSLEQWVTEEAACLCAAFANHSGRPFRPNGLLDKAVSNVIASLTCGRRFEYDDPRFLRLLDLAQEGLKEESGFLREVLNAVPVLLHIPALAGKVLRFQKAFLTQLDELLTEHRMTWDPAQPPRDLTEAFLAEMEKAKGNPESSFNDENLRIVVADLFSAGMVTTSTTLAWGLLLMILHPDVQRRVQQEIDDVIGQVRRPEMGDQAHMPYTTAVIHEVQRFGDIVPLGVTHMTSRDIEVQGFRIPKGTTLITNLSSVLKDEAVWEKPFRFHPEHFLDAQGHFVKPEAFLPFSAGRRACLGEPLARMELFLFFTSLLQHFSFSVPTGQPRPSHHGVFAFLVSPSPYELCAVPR
Description: as §1

CYP1A2 = molecular target: T6, CYP1A2 (Homo sapiens, UniProt P05177); test: Cytochrome p450 inhibition (CEREP); type: in vitro ADME; conditions: 10 μM
T6 construct: CEREP (contract laboratory)
Description: as §1

CYP2B6 = molecular target: T7, CYP2B6 (Homo sapiens, UniProt P20813); test: Cytochrome p450 inhibition (CEREP); type: in vitro ADME; conditions: 10 μM
T7 construct: CEREP (contract laboratory)
T7 sequence (P20813 whole entry): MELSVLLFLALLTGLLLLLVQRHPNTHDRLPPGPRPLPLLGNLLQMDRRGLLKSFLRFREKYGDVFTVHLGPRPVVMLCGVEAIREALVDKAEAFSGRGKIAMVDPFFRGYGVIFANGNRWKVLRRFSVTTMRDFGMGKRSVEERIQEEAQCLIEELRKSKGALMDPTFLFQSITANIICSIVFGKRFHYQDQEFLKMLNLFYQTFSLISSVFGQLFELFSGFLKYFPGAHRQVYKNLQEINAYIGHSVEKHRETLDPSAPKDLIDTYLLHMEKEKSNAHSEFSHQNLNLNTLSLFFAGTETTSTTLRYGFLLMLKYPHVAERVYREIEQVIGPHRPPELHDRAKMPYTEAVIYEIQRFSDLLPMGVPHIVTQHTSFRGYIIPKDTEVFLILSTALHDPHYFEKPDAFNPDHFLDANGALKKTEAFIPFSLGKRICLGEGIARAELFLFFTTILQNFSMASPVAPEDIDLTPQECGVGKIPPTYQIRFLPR
Description: as §1

hERG = molecular target: T8, hERG (Homo sapiens, UniProt Q12809); test: hERG automated patch clamp (CEREP); type: cell-based
T8 construct: host or cells: CHO (Chinese hamster ovary)
T8 sequence (Q12809 whole entry): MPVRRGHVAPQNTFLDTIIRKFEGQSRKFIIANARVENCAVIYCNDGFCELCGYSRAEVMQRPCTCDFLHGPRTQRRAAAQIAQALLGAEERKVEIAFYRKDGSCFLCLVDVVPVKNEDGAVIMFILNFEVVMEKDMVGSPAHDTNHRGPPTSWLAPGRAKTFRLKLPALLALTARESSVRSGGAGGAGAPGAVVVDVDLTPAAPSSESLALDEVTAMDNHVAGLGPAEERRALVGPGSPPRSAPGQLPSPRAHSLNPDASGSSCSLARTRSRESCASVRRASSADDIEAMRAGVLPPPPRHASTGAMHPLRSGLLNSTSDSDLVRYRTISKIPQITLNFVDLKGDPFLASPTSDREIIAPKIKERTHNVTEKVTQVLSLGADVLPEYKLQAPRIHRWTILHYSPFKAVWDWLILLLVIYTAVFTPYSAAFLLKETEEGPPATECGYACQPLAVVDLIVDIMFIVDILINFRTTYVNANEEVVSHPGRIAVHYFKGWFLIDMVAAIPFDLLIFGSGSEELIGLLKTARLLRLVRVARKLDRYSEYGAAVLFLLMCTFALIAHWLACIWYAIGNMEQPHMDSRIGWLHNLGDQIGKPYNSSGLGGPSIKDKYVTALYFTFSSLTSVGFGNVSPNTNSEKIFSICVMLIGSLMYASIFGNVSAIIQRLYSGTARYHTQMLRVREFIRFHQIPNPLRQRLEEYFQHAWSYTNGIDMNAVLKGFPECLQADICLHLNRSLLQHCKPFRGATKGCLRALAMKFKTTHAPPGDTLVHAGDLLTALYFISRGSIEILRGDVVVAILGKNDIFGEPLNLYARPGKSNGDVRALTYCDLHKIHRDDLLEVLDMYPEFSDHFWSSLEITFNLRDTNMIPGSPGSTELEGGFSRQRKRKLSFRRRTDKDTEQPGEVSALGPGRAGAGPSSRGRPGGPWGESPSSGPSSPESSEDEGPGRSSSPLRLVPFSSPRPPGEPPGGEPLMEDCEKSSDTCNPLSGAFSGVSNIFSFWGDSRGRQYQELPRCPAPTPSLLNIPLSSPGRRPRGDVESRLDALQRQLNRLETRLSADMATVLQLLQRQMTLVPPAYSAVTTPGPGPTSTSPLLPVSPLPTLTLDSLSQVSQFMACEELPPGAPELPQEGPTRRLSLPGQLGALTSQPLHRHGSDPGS
Description: (§2) Preliminary screening measures were conducted by CEREP. All values fall within acceptable limits (Table 5). Solubility assays where performed by CEREP, Seattle, Wash., according to Lipinski, C. A. et al., 1997, Adv. Drug Del. Rev., 46:3-26. Protein binding assays where performed by CEREP, Seattle, Wash., according to Banker, M. J. et al., 2003, J. Pharm. Sci., 92:967-974. Permeability assays where performed by CEREP, Seattle, Wash. according to Hildalgo, I. J., 1998, Gastroenterology, 96:736-749. Metabolic stability assays where performed by CEREP, Seattle, Wash., according to Obach, R. S. et al., 1997, J. Pharmacol. Exp. Ther., 283:46-58. P-glycoprotein inhibition assays where performed by CEREP, Seattle, Wash., according to Polli, J. W. et al., 2001, J. Pharm. Exp. Ther., 299:620-628. Cell viability assays where performed by CEREP, Seattle, Wash., according to Mosmann, T., 1983, J. Immunol. Met. 65:55-62. hERG automated patch clamp assays where performed by CEREP, Seattle, Wash., according to Mathes, C., 2006, Expert Opin. Ther. Targets, 10:230-241.

[2] = Metabolic stability, human liver microsomes (CEREP); type: in vitro ADME
Description: as §2

P-glycoprotein = molecular target: T9, P-glycoprotein (Homo sapiens, UniProt P08183); test: P-glycoprotein inhibition (CEREP); type: in vitro ADME
T9 construct: CEREP (contract laboratory)
T9 sequence (P08183 whole entry): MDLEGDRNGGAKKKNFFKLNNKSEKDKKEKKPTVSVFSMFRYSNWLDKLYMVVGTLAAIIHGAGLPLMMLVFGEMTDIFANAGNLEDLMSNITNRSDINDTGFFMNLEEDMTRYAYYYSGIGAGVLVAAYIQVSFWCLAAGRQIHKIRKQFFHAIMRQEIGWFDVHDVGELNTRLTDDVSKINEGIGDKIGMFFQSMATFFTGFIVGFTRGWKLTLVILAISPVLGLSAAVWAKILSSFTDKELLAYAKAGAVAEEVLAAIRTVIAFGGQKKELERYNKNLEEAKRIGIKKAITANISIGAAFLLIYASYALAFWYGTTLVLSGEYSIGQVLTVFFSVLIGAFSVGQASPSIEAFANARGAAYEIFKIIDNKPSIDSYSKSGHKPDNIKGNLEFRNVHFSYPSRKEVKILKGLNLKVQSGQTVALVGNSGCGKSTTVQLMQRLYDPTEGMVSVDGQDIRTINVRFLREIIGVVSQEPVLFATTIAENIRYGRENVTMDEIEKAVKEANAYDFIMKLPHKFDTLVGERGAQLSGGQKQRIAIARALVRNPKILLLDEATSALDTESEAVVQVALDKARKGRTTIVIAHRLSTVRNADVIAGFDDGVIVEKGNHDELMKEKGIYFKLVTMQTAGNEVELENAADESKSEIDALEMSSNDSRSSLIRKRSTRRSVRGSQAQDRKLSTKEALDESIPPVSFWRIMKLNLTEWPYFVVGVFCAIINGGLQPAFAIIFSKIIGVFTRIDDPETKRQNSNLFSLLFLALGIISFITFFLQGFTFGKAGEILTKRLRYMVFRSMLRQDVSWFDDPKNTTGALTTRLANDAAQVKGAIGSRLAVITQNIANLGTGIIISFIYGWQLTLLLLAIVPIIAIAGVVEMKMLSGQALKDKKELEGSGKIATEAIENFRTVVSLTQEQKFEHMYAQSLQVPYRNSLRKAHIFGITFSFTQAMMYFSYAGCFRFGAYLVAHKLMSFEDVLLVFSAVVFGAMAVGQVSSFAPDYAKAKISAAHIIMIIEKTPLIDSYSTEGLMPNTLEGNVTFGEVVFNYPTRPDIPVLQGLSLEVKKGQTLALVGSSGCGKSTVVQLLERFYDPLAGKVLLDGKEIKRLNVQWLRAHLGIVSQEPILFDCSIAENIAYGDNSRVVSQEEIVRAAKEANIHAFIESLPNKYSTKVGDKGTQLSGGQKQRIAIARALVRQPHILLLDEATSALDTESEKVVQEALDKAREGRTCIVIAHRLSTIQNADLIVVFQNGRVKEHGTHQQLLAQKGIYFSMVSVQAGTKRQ
Description: as §2

[3] = all three oral doses, whole blood
[4] = female, whole blood, iv, 5 mg/kg, Day 1, 5 mg/kg I.V., Female
[5] = female, whole blood, po, 10 mg/kg, Day 1, 10 mg/kg oral, Female
[6] = female, whole blood, po, 10 mg/kg, Day 7, 10 mg/kg oral, Female
[7] = female, whole blood, po, 30 mg/kg, Day 1, 30 mg/kg oral, Female
[8] = female, whole blood, po, 30 mg/kg, Day 7, 30 mg/kg oral, Female
[9] = female, whole blood, po, 100 mg/kg, Day 1, 100 mg/kg oral, Female
[10] = female, whole blood, po, 100 mg/kg, Day 7, 100 mg/kg oral, Female
[11] = male, whole blood, iv, 5 mg/kg, Day 1, 5 mg/kg I.V., Male
[12] = male, whole blood, po, 10 mg/kg, Day 1, 10 mg/kg oral, Male
[13] = male, whole blood, po, 10 mg/kg, Day 7, 10 mg/kg oral, Male
[14] = male, whole blood, po, 30 mg/kg, Day 1, 30 mg/kg oral, Male
[15] = male, whole blood, po, 30 mg/kg, Day 7, 30 mg/kg oral, Male
[16] = male, whole blood, po, 100 mg/kg, Day 1, 100 mg/kg oral, Male
[17] = male, whole blood, po, 100 mg/kg, Day 7, 100 mg/kg oral, Male
[18] = whole blood, iv, Day 1, 5 mg/kg I.V., Female
[19] = whole blood, iv, Day 1, 5 mg/kg I.V., Male

SMILES: CN1CCN(c2nc(NCCN3CCOCC3)c3nc(Cl)c(NCCN4CCOCC4)nc3n2)CC1 [JB6121, 6-chloro-2-(4-methylpiperazin-1-yl)-N^4,N^7-bis(2-morpholinoethyl)pteridine-4,7-diamine]
- 7-day accumulation ([1]; 7 day toxicokinetics versus 24 h PK whole blood exposures): approximately 2 fold
- F (0-x) ([1]; Day 1, 10 mg/kg oral, Female): 8.10%
- F (0-x) ([1]; Day 1, 10 mg/kg oral, Male): 13.3%
- F (0-x) ([1]; Day 1, 30 mg/kg oral, Female): 37.2%
- F (0-x) ([1]; Day 1, 30 mg/kg oral, Male): 28.0%
- F (0-x) ([1]; Day 1, 100 mg/kg oral, Female): 91.0%
- F (0-x) ([1]; Day 1, 100 mg/kg oral, Male): 78.5%
- increase in AUC0-24 h for a 10-fold increase in dose ([1]; Day 1, female): 113 fold
- increase in Cmax for a 10-fold increase in dose ([1]; Day 1, female): 43 fold
- increase in AUC0-24 h for a 10-fold increase in dose ([1]; Day 1, male): 59 fold
- increase in Cmax for a 10-fold increase in dose ([1]; Day 1, male): 32 fold
- increase in AUC0-24 h for a 10-fold increase in dose ([1]; Day 7, female): 38 fold
- increase in Cmax for a 10-fold increase in dose ([1]; Day 7, female): 20 fold
- increase in AUC0-24 h for a 10-fold increase in dose ([1]; Day 7, male): 48 fold
- increase in Cmax for a 10-fold increase in dose ([1]; Day 7, male): 24 fold
- average D7/D1 AUC0-24 h ratio [1, 3]: 2.79
- average D7/D1 Cmax ratio [1, 3]: 1.71
- AUC [1, 4]: 2210 ng·h/mL
- half-life [1, 4]: 10.8 h
- AUC [1, 5]: 357 ng·h/mL
- Cmax [1, 5]: 92 ng/mL
- Tmax [1, 5]: 3 h
- half-life [1, 5]: 5.43 h
- AUC [1, 6]: 2120 ng·h/mL
- Cmax [1, 6]: 260 ng/mL
- Tmax [1, 6]: 3 h
- half-life [1, 6]: 18.2 h
- AUC [1, 7]: 4920 ng·h/mL
- Cmax [1, 7]: 643 ng/mL
- Tmax [1, 7]: 3 h
- half-life [1, 7]: 8.8 h
- AUC [1, 8]: 8890 ng·h/mL
- Cmax [1, 8]: 639 ng/mL
- Tmax [1, 8]: 6 h
- half-life [1, 8]: 14.3 h
- AUC [1, 9]: 40300 ng·h/mL
- Cmax [1, 9]: 3980 ng/mL
- Tmax [1, 9]: 3 h
- half-life [1, 9]: 9.39 h
- AUC [1, 10]: 80200 ng·h/mL
- Cmax [1, 10]: 5310 ng/mL
- Tmax [1, 10]: 3 h
- half-life [1, 10]: 14.1 h
- AUC [1, 11]: 2790 ng·h/mL
- half-life [1, 11]: 10.2 h
- AUC [1, 12]: 743 ng·h/mL
- Cmax [1, 12]: 122 ng/mL
- Tmax [1, 12]: 3 h
- half-life [1, 12]: 14.1 h
- AUC [1, 13]: 1910 ng·h/mL
- Cmax [1, 13]: 181 ng/mL
- Tmax [1, 13]: 3 h
- half-life [1, 13]: 19.9 h
- AUC [1, 14]: 4700 ng·h/mL
- Cmax [1, 14]: 582 ng/mL
- Tmax [1, 14]: 3 h
- half-life [1, 14]: 9.39 h
- AUC [1, 15]: 11100 ng·h/mL
- Cmax [1, 15]: 805 ng/mL
- Tmax [1, 15]: 6 h
- half-life [1, 15]: 18.4 h
- AUC [1, 16]: 43800 ng·h/mL
- Cmax [1, 16]: 3950 ng/mL
- Tmax [1, 16]: 3 h
- half-life [1, 16]: 11.9 h
- AUC [1, 17]: 91200 ng·h/mL
- Cmax [1, 17]: 6280 ng/mL
- Tmax [1, 17]: 3 h
- half-life [1, 17]: 40.4 h
- slope of Cmax versus dose ([1]; pooled 7-day exposure data, 0 to 30 mg/kg): 28.24 ng/mL/mg/kg
- clearance [1, 18]: 31.5 mL/min/kg
- Vd [1, 18]: 23.1 L/kg
- clearance [1, 19]: 24.7 mL/min/kg
- Vd [1, 19]: 18.1 L/kg
- bioavailability ([1]; whole blood, po, Day 1, 10 mg/kg): 13.3%
- bioavailability ([1]; whole blood, po, Day 1, 30 mg/kg): 28%
- bioavailability ([1]; whole blood, po, Day 1, 100 mg/kg): 78.5%
- CYP2C8 Mean % Control (CYP2C8): 87.7%
- CYP3A4, BFC substrate Mean % Control (CYP3A4; BFC substrate): 94.1%
- CYP3A4, BzRes substrate Mean % Control (CYP3A4; BzRes substrate): 104.8%
- CYP2C19 Mean % Control (CYP2C19): 92.9%
- CYP2C9 Mean % Control (CYP2C9): 46.7%
- CYP2D6 Mean % Control (CYP2D6): 80.9%
- CYP1A2 Mean % Control (CYP1A2): 97.0%
- CYP2B6 Mean % Control (CYP2B6): 58.2%
- inhibition at 10 µM (hERG): 11%
- Metabolic Stability, Human Liver Microsomes at 60 min. % remaining [2]: 75%
- inhibition at 100 µM (P-glycoprotein): 1%
